From US20240327415A1, “Multicomponent Complexes, Including Salts, Crystalline Forms, and Hydrates and Solvates of ENT1 Inhibitors” (iTeos Belgium SA, priority 2023, published 2024)
Converted amounts (≈) assume the structure as drawn. Like-named read-outs stand apart in the source and are kept apart here. Values belong to the compound of their own block, whether it stands above or below them.

Legend:
Type in all cases: physicochemical
[1] = pH solubility studies in buffers and biorelevant media (Example 16); settings: for solubility at 24 h: thermodynamic from solid
Description: Example 16—pH Solubility Studies—(1) Crystalline Form 2 Compound 1 di(hydrogen sulfate) trihydrate, (2) Crystalline Form 3 Compound 1 di(hydrogen sulfate), and (3) Crystalline Form 4 Compound 1 mono(hydrogen sulfate): pH solubility studies were carried out on the prepared crystalline Form 2 Compound 1 di(hydrogen sulfate) trihydrate, crystalline Form 3 Compound 1 di(hydrogen sulfate) and crystalline Form 4 Compound 1 mono(hydrogen sulfate) in the following media: (1) HCl/KCl, pH 1.2; (2) Acetate, pH 4.5; (3) Phosphate, pH 6.8; (4) FaSSIF; (5) FeSSIF; and (6) FaSSGF. Slurries of the hydrogen sulfate forms were prepared in the appropriate medium and stirred at 25° C. For the experiments in the buffer media, the pH of the slurry samples was measured and adjusted as required after 1 hour and 23 hours of the slurrying. Additional solid was added where dissolution was observed post-adjustment. The pH of the samples in the biorelevant media was measured at the 23 hour timepoint. No pH adjustment was made for the biorelevant media. After a total of 24 hours of slurrying, the mother liquors were extracted via centrifugation, and the concentrations and solution purity were determined by HPLC. The residual solids were isolated and analyzed by XRPD and are shown in FIG. 77, FIG. 78, and FIG. 79. The assessment was repeated for some of the samples, where required.

[2] = TG/DSC and DSC thermal analysis; settings: for TGA/DSC thermal event, onset: value before the brackets; for TGA/DSC thermal event, peak: value in brackets
Description: (§1) In the examples below, to measure TGA/DSC, 2-10 mg of material was added into a pre-tared open aluminum pan and loaded into a TA Instruments Discovery SDT 650 Auto—Simultaneous DSC and held at room temperature. The sample was then heated at a rate of 10° C./min from 30° C. to 400° C. during which time the change in sample weight was recorded along with the heat flow response (DSC). Nitrogen was used as the sample purge gas, at a flow rate of 200 cm^3/min.
(§2) METHOD A: In Example 3, 1-5 mg of material was weighed into an aluminum DSC pan and sealed non-hermetically with a pierced aluminum lid. The sample pan was then loaded into a TA DSC2500 and held at 20° C. Once a stable heat-flow response was obtained, the sample and reference were heated to an upper temperature of 200° C. at a scan rate of 10° C./min and the resulting heat flow response monitored. The sample was held at the upper temperature for 3 minutes, before it was cooled at 10° C./min to 20° C., reheated to the upper temperature at 10° C./min, and then cooled again to 20° C. at the same rate. Nitrogen was used as the purge gas, at a flow rate of 50 cm^3/min.
as §2, with “B:” for “A:”, “Examples 2A, 14, and 17,” for “Example 3,”, “−80° C. and then” for “20° C.,”, “C./min.” for “C./min, and then cooled again to 20° C. at the same rate.”
METHOD C: In Example 5, 1-5 mg of a sample were weighed into an aluminum DSC pan and sealed non-hermetically with an aluminum lid. The sample pan was then loaded into a TA Instruments Discovery DSC 2500 differential scanning calorimeter equipped with a RC90 cooler. The sample and reference were heated to 190° C. at a scan rate of 10° C./min and the resulting heat flow response monitored. The sample was re-cooled to −80° C. and then reheated again to 190° C. all at 10° C./min. Nitrogen was used as the purge gas, at a flow rate of 50 cm^3/min.
as §1, with “2-10” for “In the examples below, to measure TGA/DSC, 2-10”, “Auto-Simultaneous” for “Auto—Simultaneous”
as §2, with “1-5” for “METHOD A: In Example 3, 1-5”, “min,” for “minutes,”

[3] = XRPD characterization (summary Table 59); settings: crystallinity
[4] = FaSSGF, 25° C., 24 h, pH after 24 h 0.87
[5] = FaSSIF, 25° C., 24 h, pH after 24 h 1.10
[6] = FeSSIF, 25° C., 24 h, pH after 24 h 1.01, Cloudy
[7] = after 24 hours slurrying in the media (Form 2: all samples except pH 4.5 Attempt 1)
[8] = pH 1.2 (HCl/KCl), attempt 1, 25° C., 24 h, pH after 24 h 1.13
[9] = pH 4.5 (Acetate), attempt 1, 25° C., 24 h, pH after 24 h 4.76→4.58
[10] = pH 4.5 (Acetate), attempt 2, 25° C., 24 h, pH after 24 h 4.88→4.56
[11] = pH 6.8 (Phosphate), attempt 1, 25° C., 24 h, pH after 24 h 5.57→6.70
[12] = pH 6.8 (Phosphate), attempt 2, 25° C., 24 h, pH after 24 h 1.57→6.71
[13] = FaSSGF, 25° C., 24 h, pH after 24 h 1.98
[14] = FaSSIF, 25° C., 24 h, pH after 24 h 3.93
[15] = FeSSIF, 25° C., 24 h, pH after 24 h 4.34
[16] = pH 1.2 (HCl/KCl), 25° C., 24 h, pH after 24 h 1.57→1.33
[17] = pH 4.5 (Acetate), 25° C., 24 h, pH after 24 h 4.43
[18] = pH 6.8 (Phosphate), 25° C., 24 h, pH after 24 h 5.19→6.94
[19] = listed as Crystalline Form 4 Compound 1 mono(hydrogen sulfate)

SMILES: COc1cc(C(=O)O[C@@H]2CCCOc3cc(cc(OC)c3OC)C(=O)NCCCN3CCCN(CC2)CC3)cc(OC)c1OC.O=S(=O)(O)O.O=S(=O)(O)O [crystalline Form 3 Compound 1 di(hydrogen sulfate)]
ML purity [1, 4]: 99.51 % area | Solub. [1, 4]: 72.0 mg/mL | ML purity [1, 5]: 99.76 % area | Solub. [1, 5]: 77.1 mg/mL | ML purity [1, 6]: 99.90 % area | Solub. [1, 6]: ≥208.3 mg/mL | solution purity of the extracted mother liquors [1, 7]: > 95 % area | solubility ([1]; all the media assessed, except the pH 4.5 media, 25° C., 24 hours): > 50 mg/mL | pH solubility ([1]; pH 1.2): pH 1.2: 76 mg/mL | pH solubility: residual solid ([1]; pH 1.2): mg/mL, Form 2 | ML purity [1, 8]: 99.56 % area | Solub. [1, 8]: 75.7 mg/mL | pH solubility ([1]; pH 4.5): pH 4.5: 54 mg/mL | pH solubility: residual solid ([1]; pH 4.5): mg/mL, Form 4 | ML purity [1, 9]: 99.59 % area | Solub. [1, 9]: 54.2 mg/mL | ML purity [1, 10]: 95.53 % area | Solub. [1, 10]: 20.0 mg/mL | solubility ([1]; pH 4.5 media, Attempt 2, 25° C., 24 hours): 20 mg/mL | pH solubility ([1]; pH 6.8): pH 6.8: 150 mg/mL | pH solubility: residual solid ([1]; pH 6.8): mg/mL, Gum | ML purity [1, 11]: 99.87 % area | Solub. [1, 11]: 122.5 mg/mL | ML purity [1, 12]: 99.16 % area | Solub. [1, 12]: 152.8 mg/mL | TGA/DSC mass loss [2]: 3.1% mass loss | TGA/DSC thermal event, onset [2]: 163 °C | TGA/DSC thermal event, peak [2]: 177 °C | XRPD [3]: Partially

ML purity ([1]; FaSSGF, 25° C., 24 h, pH after 24 h 0.93): 99.67 % area | solubility at 24 h ([1]; FaSSGF, 25 °C, pH 0.93, fassgf or other biorelevant, FaSSGF, 25° C., 24 h, pH after 24 h 0.93, read-out: Solub.): 81.1 mg/mL (≈ 128 mM) | ML purity ([1]; FaSSIF, 25° C., 24 h, pH after 24 h 1.12): 99.80 % area | solubility at 24 h ([1]; FaSSIF, 25 °C, pH 1.12, fassif, FaSSIF, 25° C., 24 h, pH after 24 h 1.12, read-out: Solub.): 76.6 mg/mL (≈ 121 mM) | ML purity ([1]; FeSSIF, 25° C., 24 h, pH after 24 h 1.07): 99.72 % area | solubility at 24 h ([1]; FeSSIF, 25 °C, pH 1.07, fessif, FeSSIF, 25° C., 24 h, pH after 24 h 1.07, read-out: Solub.): 133 mg/mL (≈ 211 mM) | solubility at 24 h ([1]; HCl/KCl buffer, 25 °C, pH 1.2, simulated gastric fluid, pH 1.2 (HCl/KCl), attempt 1, 25° C., 24 h, pH after 24 h 0.98→1.22, read-out: Solub.): > 86.7 mg/mL | solubility at 24 h ([1]; acetate buffer pH 4.5, 25 °C, pH 4.5, aqueous buffer, pH 4.5 buffer media, Attempt 1, 25° C., 24 hours, read-out: solubility): < 20 mg/mL | solubility at 24 h ([1]; acetate buffer, 25 °C, pH 4.5, aqueous buffer, pH 4.5 (Acetate), attempt 1, 25° C., 24 h, pH after 24 h 4.53, read-out: Solub.): 17.8 mg/mL (≈ 28.2 mM) | solubility at 24 h ([1]; acetate buffer, 25 °C, pH 4.5, aqueous buffer, pH 4.5 (Acetate), attempt 2, 25° C., 24 h, pH after 24 h 1.68→4.62, read-out: Solub.): 94.5 mg/mL (≈ 150 mM) | solution purity of the extracted mother liquors [1, 7]: > 99 % area | solubility at 24 h ([1]; buffers and biorelevant media, 25 °C, pH 1.2, aqueous buffer, pH 1.2 and 4.5 buffers and all the biorelevant media, slurry 25° C., 24 hours, read-out: solubility): > 75 mg/mL | pH solubility ([1]; pH 1.2): pH 1.2: >87 mg/mL | pH solubility: residual solid ([1]; pH 1.2): mg/mL, no solid | ML purity ([1]; pH 1.2 (HCl/KCl), attempt 1, 25° C., 24 h, pH after 24 h 0.98→1.22): 99.13 % area | pH solubility ([1]; pH 4.5): pH 4.5: 95 mg/mL | pH solubility: residual solid ([1]; pH 4.5): mg/mL, Form 4 | ML purity ([1]; pH 4.5 (Acetate), attempt 1, 25° C., 24 h, pH after 24 h 4.53): 89.50 % area | ML purity ([1]; pH 4.5 (Acetate), attempt 2, 25° C., 24 h, pH after 24 h 1.68→4.62): 99.76 % area | solution purity of the extracted mother liquors ([1]; pH 4.5 Attempt 1): 89 % area | pH solubility ([1]; pH 6.8): pH 6.8: 12 mg/mL | pH solubility: residual solid ([1]; pH 6.8): mg/mL, Gum | ML purity ([1]; pH 6.8 (Phosphate), attempt 1, 25° C., 24 h, pH after 24 h 1.01→6.87): 99.43 % area | solubility at 24 h ([1]; phosphate buffer, 25 °C, pH 6.8, aqueous buffer, pH 6.8 (Phosphate), attempt 1, 25° C., 24 h, pH after 24 h 1.01→6.87, read-out: Solub.): 12 mg/mL (≈ 19 mM) | solubility at 24 h ([1]; phosphate buffer, 25 °C, pH 6.8, aqueous buffer, pH 6.8 (Phosphate), attempt 2, 25° C., 24 h, pH after 24 h 4.79→6.90, read-out: Solub.): 6.1 mg/mL (≈ 9.66 mM) | DSC (onset/peak): onset [2]: 144 °C | DSC (onset/peak): peak [2]: 158 °C | TGA/DSC mass loss [2]: 7.3% mass loss | TGA/DSC thermal event, onset [2]: 130 °C | TGA/DSC thermal event, peak [2]: 149 °C | XRPD [3]: Crystalline
SMILES: CCCN1CCNCCCNC(=O)c2cc(OC)c(OC)c(c2)OCCC[C@@H](OC(=O)c2cc(OC)c(OC)c(OC)c2)CC1

SMILES: COc1cc(C(=O)O[C@@H]2CCCOc3cc(cc(OC)c3OC)C(=O)NCCCN3CCCN(CC2)CC3)cc(OC)c1OC.O=S(=O)(O)O
ML purity [1, 13]: 99.82 % area | Solub. [1, 13]: 36.7 mg/mL | ML purity [1, 14]: 99.86 % area | Solub. [1, 14]: 44.9 mg/mL | ML purity [1, 15]: 99.69 % area | Solub. [1, 15]: 124.2 mg/mL | solution purity of the extracted mother liquors [1, 7]: > 98 % area | pH solubility ([1]; pH 1.2): pH 1.2: 134 mg/mL | pH solubility: residual solid ([1]; pH 1.2): mg/mL, Form 4 | ML purity [1, 16]: >99.99 % area | Solub. [1, 16]: 134.1 mg/mL | solubility ([1]; pH 1.2 and FeSSIF media, 25° C., 24 hours): > 100 mg/mL | pH solubility ([1]; pH 4.5): pH 4.5: 47 mg/mL | pH solubility: residual solid ([1]; pH 4.5): mg/mL, Form 4 | ML purity [1, 17]: 99.86 % area | Solub. [1, 17]: 46.9 mg/mL | pH solubility ([1]; pH 6.8): pH 6.8: 62 mg/mL | pH solubility: residual solid ([1]; pH 6.8): mg/mL, Gum | ML purity [1, 18]: 98.30 % area | Solub. [1, 18]: 62.0 mg/mL | solubility ([1]; the other media assessed, 25° C., 24 hours): 30 to 80 mg/mL | DSC (onset/peak): onset [2]: 113 °C | DSC (onset/peak): peak [2]: 119 °C | TGA/DSC mass loss [2, 19]: 15.5% mass loss | TGA/DSC thermal event, onset [2, 19]: 148 °C | TGA/DSC thermal event, peak [2, 19]: 160 °C | XRPD [3]: Crystalline
